In ChEMBL document CHEMBL1135759, “Exploring the role of bromine at C(10) of (+)-4-[2-[4-(8-chloro-3,10-dibromo- 6,11-dihydro-5H-benzo[5,6]cyclohepta[1,2-b]pyridin-11(R)-yl)-1-piperidinyl]-2- oxoethyl]-1-piperidinecarboxamide (Sch-66336): the discovery of indolocycloheptapyridine inhibitors of farnesyl protein transferase” (J Med Chem, 2002):

Target: Protein farnesyltransferase (Homo sapiens, UniProt P49354+P49356)
Experiment: Inhibition of Protein farnesyltransferase in an enzyme assay with His6-H-Ras-CVLS

| Structure (SMILES) | IC50 |
| --- | --- |
| Cc1cn(C)c2c(Cl)cc3c(c12)C(C1CCN(C(=O)Cc2cc[n+]([O-])cc2)CC1)c1ncccc1CC3 (single isomer, unassigned; (+)) | > 190 nM |
| CCCc1c[nH]c2c(Cl)cc3c(c12)[C@@H](C1CCN(C(=O)Cc2cc[n+]([O-])cc2)CC1)c1ncccc1CC3 (stereo in doubt; (+)-10b) | 65 nM |
| CCCCc1c[nH]c2c(Cl)cc3c(c12)[C@@H](C1CCN(C(=O)Cc2cc[n+]([O-])cc2)CC1)c1ncccc1CC3 (stereo in doubt; (+)-10c) | 69 nM |
| CCCc1c[nH]c2c(Cl)cc3c(c12)[C@@H](C1CCN(C(=O)Cc2cc[n+]([O-])cc2)CC1)c1ncccc1CC3 (stereo in doubt; (-)-10b) | > 190 nM |
| CCCCc1c[nH]c2c(Cl)cc3c(c12)[C@@H](C1CCN(C(=O)Cc2cc[n+]([O-])cc2)CC1)c1ncccc1CC3 (stereo in doubt; (-)-10c) | > 180 nM |

The next molecules have a lower IC50 than those just listed; values first:

| IC50 | Structure (SMILES) |
| --- | --- |
| 42 nM | O=C(Cc1cc[n+]([O-])cc1)N1CCC(C2c3ncccc3CCc3cc(Cl)c4[nH]ccc4c32)CC1 (single isomer, unassigned; (+)) |
| 34 nM | O=C(Cc1cc[n+]([O-])cc1)N1CCC([C@@H]2c3ccc(Cl)cc3CCc3cc(Br)cnc32)CC1 |
| 28 nM | Cc1c[nH]c2c(Cl)cc3c(c12)[C@@H](C1CCN(C(=O)Cc2cc[n+]([O-])cc2)CC1)c1ncccc1CC3 (stereo in doubt; (-)-10a) |
| 19 nM | O=C(Cc1cc[n+]([O-])cc1)N1CCC([C@H]2c3ncccc3CCc3cc(Cl)cc(Br)c32)CC1 |
| 7.4 nM | Cc1c[nH]c2c(Cl)cc3c(c12)[C@@H](C1CCN(C(=O)Cc2cc[n+]([O-])cc2)CC1)c1ncccc1CC3 (stereo in doubt; (+)-10a) |
| 2.6 nM | Cc1c[nH]c2c(Cl)cc3c(c12)[C@@H](C1CCN(C(=O)Cc2cc[n+]([O-])cc2)CC1)c1ncc(Br)cc1CC3 |
